# Data as given in article PMC7215373, “Design, Synthesis, and Anticancer Evaluation of Novel Indole Derivatives of Ursolic Acid as Potential Topoisomerase II Inhibitors” (International Journal of Molecular Sciences, 2020).
# How the values were obtained:
# SMMC-7721 cells [1] = assay: MTT cytotoxicity assay, SMMC-7721; assay type: cell-based, human; conditions: 48 h exposure
# Outline: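 Cells in DMEM with 10% FBS were seeded and allowed to attach for 24 h. They were then exposed to compound dilutions for 48 h at 37 °C, 5% CO2. Viability was measured by MTT (4 h), with formazan dissolved in DMSO and read at 570 nm.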
# Human Topoisomerase IIα = target: T1, Human Topoisomerase IIα (Homo sapiens, UniProt P11388); assay: Topoisomerase II relaxation assay (supercoiled pBR322); assay type: biochemical
# T1 construct: purchased USB, Affymetrix, Waltham, MA, USA
# T1 sequence (P11388 whole entry): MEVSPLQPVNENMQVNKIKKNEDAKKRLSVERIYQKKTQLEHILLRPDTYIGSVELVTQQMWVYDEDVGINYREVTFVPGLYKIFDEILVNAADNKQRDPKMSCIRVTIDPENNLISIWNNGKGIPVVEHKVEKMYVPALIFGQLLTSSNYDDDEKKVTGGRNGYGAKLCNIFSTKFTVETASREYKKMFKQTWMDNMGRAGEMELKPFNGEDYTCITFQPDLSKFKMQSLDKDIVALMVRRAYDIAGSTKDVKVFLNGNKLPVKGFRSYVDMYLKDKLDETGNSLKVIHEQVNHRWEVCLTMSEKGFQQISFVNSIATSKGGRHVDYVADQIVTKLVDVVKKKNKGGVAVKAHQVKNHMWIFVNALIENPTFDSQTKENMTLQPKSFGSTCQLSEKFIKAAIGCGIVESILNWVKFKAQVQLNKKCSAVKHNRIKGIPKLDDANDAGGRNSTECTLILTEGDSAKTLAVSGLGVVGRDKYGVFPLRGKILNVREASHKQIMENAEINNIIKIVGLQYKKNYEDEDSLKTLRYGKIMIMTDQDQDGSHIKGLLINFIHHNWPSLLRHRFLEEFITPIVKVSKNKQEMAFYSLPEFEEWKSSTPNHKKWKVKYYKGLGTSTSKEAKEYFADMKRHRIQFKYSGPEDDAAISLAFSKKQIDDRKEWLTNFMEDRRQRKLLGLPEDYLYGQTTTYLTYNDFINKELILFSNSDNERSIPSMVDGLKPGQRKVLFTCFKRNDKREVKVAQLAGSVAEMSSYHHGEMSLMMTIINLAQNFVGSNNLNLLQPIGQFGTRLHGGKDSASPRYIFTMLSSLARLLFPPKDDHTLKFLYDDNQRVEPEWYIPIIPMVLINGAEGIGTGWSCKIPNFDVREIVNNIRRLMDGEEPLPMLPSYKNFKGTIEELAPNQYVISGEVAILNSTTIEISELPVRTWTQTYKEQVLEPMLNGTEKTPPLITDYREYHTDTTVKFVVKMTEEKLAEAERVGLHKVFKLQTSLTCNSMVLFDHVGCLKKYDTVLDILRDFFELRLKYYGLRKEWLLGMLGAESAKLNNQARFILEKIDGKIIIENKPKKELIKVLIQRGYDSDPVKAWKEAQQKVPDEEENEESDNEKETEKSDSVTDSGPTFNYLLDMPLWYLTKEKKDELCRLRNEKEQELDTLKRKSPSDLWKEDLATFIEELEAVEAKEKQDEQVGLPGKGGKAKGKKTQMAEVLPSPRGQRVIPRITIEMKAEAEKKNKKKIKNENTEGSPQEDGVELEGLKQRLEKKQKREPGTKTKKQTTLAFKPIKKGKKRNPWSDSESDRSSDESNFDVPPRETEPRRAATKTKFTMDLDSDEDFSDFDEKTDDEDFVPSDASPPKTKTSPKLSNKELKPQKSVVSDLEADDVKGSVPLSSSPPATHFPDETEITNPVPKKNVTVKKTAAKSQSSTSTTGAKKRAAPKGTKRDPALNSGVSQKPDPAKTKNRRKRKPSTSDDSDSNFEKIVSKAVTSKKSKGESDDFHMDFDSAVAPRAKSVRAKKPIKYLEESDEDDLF
# Outline: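 Compounds (in 2% v/v DMSO) pre-incubated 15 min with human Topo IIα and supercoiled pBR322 DNA, then reacted 30 min at 37 °C and stopped with 7 mM EDTA. Relaxed vs supercoiled DNA resolved on 1% TAE-agarose, ethidium bromide-stained and imaged. Etoposide served as positive control.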
# SMMC-7721 cells [2] = assay: JC-1 mitochondrial membrane potential assay; assay type: cell-based, human; conditions: 24 h, control 1.29%
# Procedure: It has been widely believed that intracellular ROS accumulation could decrease mitochondrial membrane potential (ΔΨm), which is a characteristic phenomenon of early apoptosis. To investigate the correlation between ΔΨm and apoptosis induced by compound 5f, the measurement of cells with decreased ΔΨm were carried out by JC-1 assay kit on the instructions of the manual.
# The JC-1 mitochondrial membrane potential assay kit (Keygene Biotech., Nanjing, China) was employed to measure mitochondrial depolarization in SMMC-7721 cells. The fluorescence probe JC-1 was used to detect the change of mitochondrial membrane potential. Briefly, cells cultured in six-well plates after indicated treatments by compound 5f were incubated with an equal volume of JC-1 staining solution (5 μg/mL) at 37 °C for 20 min and rinsed twice with PBS. Mitochondrial membrane potentials were monitored by determining the relative amounts of dual emissions from mitochondrial JC-1 monomers or aggregates using flow cytometry (Becton-Dickinson FACSCalibur, Franklin Lakes, NJ, USA). Mitochondrial membrane depolarization is indicated by an increase in the percentage of cells with low ΔΨm (green fluorescence, lower right quadrant) compared with cells with high ΔΨm (red fluorescence, upper right quadrant).
# SMMC-7721 cells [3] = assay: Annexin V-FITC/PI staining apoptosis assay by flow cytometry; assay type: cell-based, human; conditions: 48 h, control 4.41%
# Procedure: To further investigate the role of apoptosis in the antitumor activity of compound 5f, SMMC-7721 cells were treated with different concentrations of compound 5f (0, 0.3, 0.6, and 1.2 μM) for 48 h. Then the treated cells were stained with Annexin V-FITC/PI followed by flow cytometry analysis.
# The extent of apoptosis was quantitatively measured using Annexin V-FITC/PI dual staining assay. SMMC-7721 cells were seeded into a six-well plate at 5 × 10^5 cells per well in 10% fetal calf serum (FBS)-DMEM into six-well plates and treated with different concentrations of the indicated compound 5f for 48 h. The cells were detached with 0.25% trypsin, washed with ice-cold PBS for twice and then resuspended in 1 × Binding buffer (0.1 M Hepes/NaOH (pH 7.4), 1.4 M NaCl, 25 mM CaCl2). The cells were stained with 5 μL of Annexin V-FITC and 5 μL of PI ([…]) to each tube. The cells were gently vortexed and incubated in the dark at room temperature for 15 min and then kept at 4 °C. The samples were analyzed by a flow cytometer (Becton-Dickinson FACSCalibur, Franklin Lakes, NJ, USA), and data were analyzed using the FlowJo software (Becton-Dickinson Biosciences, Franklin Lakes, NJ, USA).
# SMMC-7721 cells [4] = assay: ROS generation assay (DCFH-DA, flow cytometry); assay type: cell-based, human; conditions: 48 h, control 3.97%
# Procedure: Reactive oxygen species (ROS), which can exert oxidative stress to cells and lead to disturbances in mitochondrial membrane potential, are important mediators for the induction of apoptosis in many cancer cells. To determine whether the apoptosis induced by compound 5f was associated with intracellular ROS level, SMMC-7721 cells treated with different concentrations of 5f were stained with the fluorescent probe DCFH-DA and analyzed by flow cytometry.
# ROS generation assay was performed by using the reactive oxygen species assay kit (Beyotime Biotech., Shanghai, China). Intracellular ROS generation was tested through dichlorodihydro fluorescein diacetate (DCFH-DA) assay. DCFH-DA is taken up by SMMC-7721 cells, and then activated by esterase-mediated cleavage of acetate to form dichlorodihydro fluorescein (DCFH), which is trapped in the cells. DCFH is converted to fluorescein DCF in the presence of ROS. SMMC-7721 cells were seeded in six-well plates and incubated with different concentrations of compound 5f for 48 h. After removing the compound solution, cells were treated with 10 μM of DCFH-DA at 37 °C for 20 min. Subsequently, the cells were washed with PBS for three times and then exposed to light. Immediately after light exposure, the fluorescence intensity of dichlorofluorescein (DCF) was measured with excitation at 488 nm and emission at 525 nm by a flow cytometry (Becton-Dickinson FACSCalibur, Franklin Lakes, NJ, USA).
compound,measurement,setting,value
"Cc1ccc2[nH]c3c(c2c1)C[C@@]1(C)C(CC[C@]2(C)C1CC=C1C4[C@@H](C)[C@H](C)CC[C@]4(C(=O)NCCCN4CCN(C)CC4)CC[C@]12C)C3(C)C (stereo partly shown) [5f, N-(3-(4-Methylpiperazin-1-yl)propyl)-5′-methyl-1′H-ursa-2,12-dieno[3,2-b]indol-28-carboxamide]",IC50,SMMC-7721 cells [1],0.56 ± 0.08 µM
same,IC50,"SMMC-7721 cells [1]; Homo sapiens, SMMC-7721, 48 h",~1 µM
same,inhibition at 20 µM,"Human Topoisomerase IIα; 20 μM compound, read-out: Topo II Inhibition (%) 20 μM",43.2%
same,inhibition at 100 µM,"Human Topoisomerase IIα; 100 μM compound, read-out: Topo II Inhibition (%) 100 μM",83.5%
same,percentage of cells with low ΔΨm,SMMC-7721 cells [2]; 0.3 μM,7.43%
same,percentage of cells with low ΔΨm,SMMC-7721 cells [2]; 0.6 μM,16.28%
same,percentage of cells with low ΔΨm,SMMC-7721 cells [2]; 1.2 μM,32.34%
same,percentage of early and late apoptotic cells,SMMC-7721 cells [3]; 0.3 μM,9.13%
same,percentage of early and late apoptotic cells,SMMC-7721 cells [3]; 0.6 μM,21.36%
same,percentage of early and late apoptotic cells,SMMC-7721 cells [3]; 1.2 μM,30.33%
same,cells with elevated ROS levels (% relative ROS raised cells),SMMC-7721 cells [4]; 0.3 μM,9.89%
same,cells with elevated ROS levels (% relative ROS raised cells),SMMC-7721 cells [4]; 0.6 μM,19.84%
same,cells with elevated ROS levels (% relative ROS raised cells),SMMC-7721 cells [4]; 1.2 μM,34.61%
